The compounds below were run against Wee1 (Homo sapiens, UniProt P30291) (assay: Cellular degradation of Wee1 by immunoblot, 6-hour treatment of MOLT4 cells). Settings: MOLT4 cells, immunoblot.
Format: cell-based
Parameters: endogenous in cells; host or cells: MOLT4 (wild type; CRBN-/- as control)
Method: General Protocol: HT-29, MOLT4 wild type (WT) or CRBN^-/- cells were plated in a 6 well plate and treated for 6 hours with the indicated concentrations of the inventive compounds and control. HT-29 cells were cultured in McCoy's Media supplemented with 10% FBS and 1% Penicillin/Streptomycin. MOLT4 WT and CRBN^-/- cells were cultured in Roswell Park Memorial Institute (RPMI) medium supplemented with 10% FBS and 1% Penicillin/Streptomycin. Mycoplasma testing was performed every month and all lines were negative. Immunoblotting: Cells were washed with phosphate-buffered saline (PBS) and then lysed using radioimmunoprecipitation assay (RIPA) buffer supplemented with protease and phosphatase inhibitor cocktail (Roche) on ice for 15 minutes. The lysates were centrifuged at 14,000 rpm for 15 minutes at 4° C. and protein was quantified by bicinchoninic acid (BCA) assay (PierceTM). Primary antibodies used include: Wee1 ([…]) (Cell Signaling Technology®, 13084S), polo-like kinase 1 (PLK1) (Thermo Fisher Scientific, 37-7000), phosphor-cdc2 (Y15) (10A11) (Cell Signaling Technology®, […]), phospho-histone H3 ([…]) (Cell Signaling Technology®, […]), Ikaros ([…]) (Cell Signaling Technology®, 14859S), Aiolos ([…]) (Cell Signaling Technology®, 15103), casein kinase 1 alpha (Abcam®, 108296), β-actin (Cell Signaling Technology®, 8H10D10). FIG. 2A is an immunoblot showing that compound 13 degraded Wee1 after a 6-hour treatment in MOLT4 cells, and induced the downstream changes expected from Wee1 loss-including a decrease in phosphorylated cyclin-dependent kinase 1 (pCDK1) (Y15) and an increase in pH 3. […] Degradation of Wee1 by compound 13 was rescued in MOLT4 CRBN^-/- cells. MOLT4 WT and CRBN^-/- cells were plated in a 6-well plate at 2.25 million cells per well in 3 mL media (RPMI+10% FBS+1% Penn/Strep). After treatment with the indicated concentrations of candidate compounds, cells were incubated for 6 hours at 37° C. 5% CO2. To harvest, the cells were washed 1× with cold PBS, then collected by centrifugation. Cell pellets were lysed in RIPA buffer with protease and phosphatase inhibitors (Roche). Lysates were clarified by centrifugation, and protein concentrations were normalized using a BCA assay (Thermo ScientificTM). The samples were diluted with 4×LDS+10% β-mercaptoethanol, and were boiled at 95° C. for 5 minutes. Proteins of interest were then assessed by western blotting. […] The experimental protocol was the same as in Example 28.

Wee1, sequence (P30291 whole entry): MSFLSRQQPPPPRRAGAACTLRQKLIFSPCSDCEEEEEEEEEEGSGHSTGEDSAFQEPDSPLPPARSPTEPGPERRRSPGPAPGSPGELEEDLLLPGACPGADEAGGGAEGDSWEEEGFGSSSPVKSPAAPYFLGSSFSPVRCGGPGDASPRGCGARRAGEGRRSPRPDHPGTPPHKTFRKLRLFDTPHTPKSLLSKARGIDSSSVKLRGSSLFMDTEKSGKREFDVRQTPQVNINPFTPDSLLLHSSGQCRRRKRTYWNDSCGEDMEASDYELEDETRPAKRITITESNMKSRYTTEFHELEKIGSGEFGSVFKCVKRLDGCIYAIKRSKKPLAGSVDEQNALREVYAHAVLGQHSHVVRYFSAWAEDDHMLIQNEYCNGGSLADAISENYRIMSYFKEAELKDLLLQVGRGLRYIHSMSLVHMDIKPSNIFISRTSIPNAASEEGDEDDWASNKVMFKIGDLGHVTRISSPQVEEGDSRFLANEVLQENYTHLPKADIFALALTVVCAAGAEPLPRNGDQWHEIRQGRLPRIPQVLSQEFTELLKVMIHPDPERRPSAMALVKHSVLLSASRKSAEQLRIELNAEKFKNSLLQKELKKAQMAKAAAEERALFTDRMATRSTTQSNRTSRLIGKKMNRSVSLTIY

| Wee1 degradation | SMILES |
| --- | --- |
| Degradation of Wee1 was also observed | C=CCn1c(=O)c2cnc(Nc3ccc(N4CCN(CCCCCC(=O)N[C@H](C(=O)N5C[C@H](O)C[C@H]5C(=O)N[C@@H](C)c5ccc(-c6scnc6C)cc5)C(C)(C)C)CC4)cc3)nc2n1-c1cccc(C(C)(C)O)n1 [Compound 21, tert-butyl (2S,4R)-1-((S)-2-(6-(4-(4-((2-allyl-1-(6-(2-hydroxypropan-2-yl)pyridin-2-yl)-3-oxo-2,3-dihydro-1H-pyrazolo[3,4-d]pyrimidin-6-yl)amino)phenyl)piperazin-1-yl)hexanamido)-3,3-dimethylbutanoyl)-4-hydroxy-N—((S)-1-(4-(4-methylthiazol-5-yl)phenyl)ethyl)pyrrolidine-2-carboxamide] |

Same assay, conditions: MOLT-4, 1 μM, MOLT4 cells, approximated by immunoblot, read-out: Extent of Degradation of Wee1

| percent Wee1 degradation at 1 µM [%] | SMILES |
| --- | --- |
| < 25 | C=CCn1c(=O)c2cnc(Nc3ccc(N4CCN(C(=O)CCOCCOCCOCCOCCNc5cccc6c5C(=O)N(C5CCC(=O)NC5=O)C6=O)CC4)cc3)nc2n1-c1cccc(C(C)(C)O)n1 (centres unmarked) [Compound 1, 4-((15-(4-(4-((2-allyl-1-(6-(2-hydroxypropan-2-yl)pyridin-2-yl)-3-oxo-2,3-dihydro-1H-pyrazolo[3,4-d]pyrimidin-6-yl)amino)phenyl)piperazin-1-yl)-15-oxo-3,6,9,12-tetraoxapentadecyl)amino)-2-(2,6-dioxopiperidin-3-yl)isoindoline-1,3-dione] |
| > 50 | C=CCn1c(=O)c2cnc(Nc3ccc(N4CCN(C(=O)CCOCCOCCNc5cccc6c5C(=O)N(C5CCC(=O)NC5=O)C6=O)CC4)cc3)nc2n1-c1cccc(C(C)(C)O)n1 (centres unmarked) [Compound 3, 4-((2-(2-(3-(4-(4-((2-allyl-1-(6-(2-hydroxypropan-2-yl)pyridin-2-yl)-3-oxo-2,3-dihydro-1H-pyrazolo[3,4-d]pyrimidin-6-yl)amino)phenyl)piperazin-1-yl)-3-oxopropoxy)ethoxy)ethyl)amino)-2-(2,6-dioxopiperidin-3-yl)isoindoline-1,3-dione] |
| 25 to 50 | C=CCn1c(=O)c2cnc(Nc3ccc(N4CCN(C(=O)CCOCCOCCNc5cccc6c5CN(C5CCC(=O)NC5=O)C6=O)CC4)cc3)nc2n1-c1cccc(C(C)(C)O)n1 (centres unmarked) [Compound 4, 3-(4-((2-(2-(3-(4-(4-((2-allyl-1-(6-(2-hydroxypropan-2-yl)pyridin-2-yl)-3-oxo-2,3-dihydro-1H-pyrazolo[3,4-d]pyrimidin-6-yl)amino)phenyl)piperazin-1-yl)-3-oxopropoxy)ethoxy)ethyl)amino)-1-oxoisoindolin-2-yl)piperidine-2,6-dione] |
| > 50 | C=CCn1c(=O)c2cnc(Nc3ccc(N4CCN(C(=O)CCOCCNc5cccc6c5C(=O)N(C5CCC(=O)NC5=O)C6=O)CC4)cc3)nc2n1-c1cccc(C(C)(C)O)n1 (centres unmarked) [Compound 5, 4-((2-(3-(4-(4-((2-allyl-1-(6-(2-hydroxypropan-2-yl)pyridin-2-yl)-3-oxo-2,3-dihydro-1H-pyrazolo[3,4-d]pyrimidin-6-yl)amino)phenyl)piperazin-1-yl)-3-oxopropoxy)ethyl)amino)-2-(2,6-dioxopiperidin-3-yl)isoindoline-1,3-dione] |
| 25 to 50 | C=CCn1c(=O)c2cnc(Nc3ccc(N4CCN(C(=O)CCCCCCCCOc5cccc6c5C(=O)N(C5CCC(=O)NC5=O)C6=O)CC4)cc3)nc2n1-c1cccc(C(C)(C)O)n1 (centres unmarked) [Compound 6, 4-((9-(4-(4-((2-allyl-1-(6-(2-hydroxypropan-2-yl)pyridin-2-yl)-3-oxo-2,3-dihydro-1H-pyrazolo[3,4-d]pyrimidin-6-yl)amino)phenyl)piperazin-1-yl)-9-oxononyl)oxy)-2-(2,6-dioxopiperidin-3-yl)isoindoline-1,3-dione] |
| > 50 | C=CCn1c(=O)c2cnc(Nc3ccc(N4CCN(CCCNC(=O)CCOCCOCCOCCOCCNc5cccc6c5C(=O)N(C5CCC(=O)NC5=O)C6=O)CC4)cc3)nc2n1-c1cccc(C(C)(C)O)n1 (centres unmarked) [Compound 8, N-(3-(4-(4-((2-allyl-1-(6-(2-hydroxypropan-2-yl)pyridin-2-yl)-3-oxo-2,3-dihydro-1H-pyrazolo[3,4-d]pyrimidin-6-yl)amino)phenyl)piperazin-1-yl)propyl)-1-((2-(2,6-dioxopiperidin-3-yl)-1,3-dioxoisoindolin-4-yl)amino)-3,6,9,12-tetraoxapentadecan-15-amide] |
| > 50 | C=CCn1c(=O)c2cnc(Nc3ccc(N4CCN(C(=O)CCOCCOCCOCCN5CCN(Cc6ccc(COc7cccc8c7CN([C@H]7CCC(=O)NC7=O)C8=O)cc6)CC5)CC4)cc3)nc2n1-c1cccc(C(C)(C)O)n1 [Compound 9, (S)-3-(4-((4-((4-(2-(2-(2-(3-(4-(4-((2-allyl-1-(6-(2-hydroxypropan-2-yl)pyridin-2-yl)-3-oxo-2,3-dihydro-1H-pyrazolo[3,4-d]pyrimidin-6-yl)amino)phenyl)piperazin-1-yl)-3-oxopropoxy)ethoxy)ethoxy)ethyl)piperazin-1-yl)methyl)benzyl)oxy)-1-oxoisoindolin-2-yl)piperidine-2,6-dione] |
| 25 to 50 | C=CCn1c(=O)c2cnc(Nc3ccc(N4CCN(CCCNC(=O)CCOCCOCCOCCN5CCN(Cc6ccc(COc7cccc8c7CN([C@H]7CCC(=O)NC7=O)C8=O)cc6)CC5)CC4)cc3)nc2n1-c1cccc(C(C)(C)O)n1 [Compound 10, (S)—N-(3-(4-(4-((2-Allyl-1-(6-(2-hydroxypropan-2-yl)pyridin-2-yl)-3-oxo-2,3-dihydro-1H-pyrazolo[3,4-d]pyrimidin-6-yl)amino)phenyl)piperazin-1-yl)propyl)-3-(2-(2-(2-(4-(4-(((2-(2,6-dioxopiperidin-3-yl)-1-oxoisoindolin-4-yl)oxy)methyl)benzyl)piperazin-1-yl)ethoxy)ethoxy)ethoxy)propanamide] |
| 25 to 50 | C=CCn1c(=O)c2cnc(Nc3ccc(N(C)CCCCNc4cccc5c4C(=O)N(C4CCC(=O)NC4=O)C5=O)cc3)nc2n1-c1cccc(C(C)(C)O)n1 (centres unmarked) [Compound 15, 4-((4-((4-((2-Allyl-1-(6-(2-hydroxypropan-2-yl)pyridin-2-yl)-3-oxo-2,3-dihydro-1H-pyrazolo[3,4-d]pyrimidin-6-yl)amino)phenyl)(methyl)amino)butyl)amino)-2-(2,6-dioxopiperidin-3-yl)isoindoline-1,3-dione] |
| > 50 | C=CCn1c(=O)c2cnc(Nc3ccc(N(C)CCCCNc4ccc5c(c4)C(=O)N(C4CCC(=O)NC4=O)C5=O)cc3)nc2n1-c1cccc(C(C)(C)O)n1 (centres unmarked) [Compound 16, 5-((4-((4-((2-Allyl-1-(6-(2-hydroxypropan-2-yl)pyridin-2-yl)-3-oxo-2,3-dihydro-1H-pyrazolo[3,4-d]pyrimidin-6-yl)amino)phenyl)(methyl)amino)butyl)amino)-2-(2,6-dioxopiperidin-3-yl)isoindoline-1,3-dione] |
| > 50 | C=CCn1c(=O)c2cnc(Nc3ccc(N4CCN(CCCNc5cccc6c5C(=O)N(C5CCC(=O)NC5=O)C6=O)CC4)cc3)nc2n1-c1cccc(OC)n1 (centres unmarked) [Compound 17, 4-((3-(4-(4-((2-Allyl-1-(6-methoxypyridin-2-yl)-3-oxo-2,3-dihydro-1H-pyrazolo[3,4-d]pyrimidin-6-yl)amino)phenyl)piperazin-1-yl)propyl)amino)-2-(2,6-dioxopiperidin-3-yl)isoindoline-1,3-dione] |
| > 50 | C=CCn1c(=O)c2cnc(Nc3ccc(N4CCN(CCCNc5cccc6c5C(=O)N(C5CCC(=O)NC5=O)C6=O)CC4)cc3)nc2n1-c1cccc(C(F)(F)F)n1 (centres unmarked) [Compound 18, 4-((3-(4-(4-((2-Allyl-3-oxo-1-(6-(trifluoromethyl)pyridin-2-yl)-2,3-dihydro-1H-pyrazolo[3,4-d]pyrimidin-6-yl)amino)phenyl)piperazin-1-yl)propyl)amino)-2-(2,6-dioxopiperidin-3-yl)isoindoline-1,3-dione] |
| < 25 | C=CCn1c(=O)c2cnc(Nc3ccc(N4CCN(CCCCCC(=O)N[C@H](C(=O)N5C[C@H](O)C[C@H]5C(=O)N[C@@H](C)c5ccc(-c6scnc6C)cc5)C(C)(C)C)CC4)cc3)nc2n1-c1cccc(C(C)(C)O)n1 [Compound 21, tert-butyl (2S,4R)-1-((S)-2-(6-(4-(4-((2-allyl-1-(6-(2-hydroxypropan-2-yl)pyridin-2-yl)-3-oxo-2,3-dihydro-1H-pyrazolo[3,4-d]pyrimidin-6-yl)amino)phenyl)piperazin-1-yl)hexanamido)-3,3-dimethylbutanoyl)-4-hydroxy-N—((S)-1-(4-(4-methylthiazol-5-yl)phenyl)ethyl)pyrrolidine-2-carboxamide] |

From US12318452B2, “Degraders of WEE1 kinase” (DANA-FARBER CANCER INSTITUTE, INC., priority 2018, dated 2025)
